Measured values as given in publication PMC7377239, “Cardiovascular Effects of Polychlorinated Biphenyls and Their Major Metabolites” (Environmental Health Perspectives, 2020).
Like-named read-outs stand apart in the source and are kept apart here.

System: iCell cardiomyocytes (human iPSC-derived cardiomyocytes)
Assay: Intracellular Ca2+ flux / beating parameters in iCell cardiomyocytes (FLIPR tetra), 90 min or 24 h
Type: cell-based
Settings: Homo sapiens, Cardiomyocyte, 0.00 µM = 100.00; for activity at 0.1 µM: 0.10 µM
Procedure, shortened: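 Gelatin-plated iCell cardiomyocytes (5,000/well) were dye-loaded for 2 h at 37 °C, then exposed for 90 min or 24 h to PCBs/metabolites (5× plates at 0.05–500 µM; 0.5% DMSO final) in triplicate. Ca2+ flux was read for 100 s at 8 Hz and 37 °C. Peak height, frequency, spacing CV and decay/rise ratio were vehicle-normalized and fitted with a four-parameter logistic model, with POD set at 1 SD of vehicle.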

[1] = 1.5 h, read-out: cm.amp.avg.90min
[2] = 1.5 h, read-out: cm.amp.cv.90min
[3] = 1.5 h, read-out: cm.decay.rise.90min
[4] = 1.5 h, read-out: cm.spacing.cv.90min
[5] = 24 h, read-out: cm.amp.avg.24hrs
[6] = 24 h, read-out: cm.amp.cv.24hrs
[7] = 24 h, read-out: cm.decay.rise.24hrs
[8] = 24 h, read-out: cm.spacing.cv.24hrs

SMILES: COc1ccc(-c2ccc(Cl)cc2)cc1 [4'-OMe PCB3]
- activity at 0.01 µM [1]: 96.9%
- activity at 0.01 µM [2]: 88.9%
- activity at 0.01 µM (1.5 h, read-out: cm.bpm.90min): 103%
- activity at 0.01 µM [3]: 99.4%
- activity at 0.01 µM [4]: 117%
- activity at 0.1 µM [1]: 93.5%
- activity at 0.1 µM [2]: 102%
- activity at 0.1 µM (1.5 h, read-out: cm.bpm.90min): 100%
- activity at 0.1 µM [3]: 102%
- activity at 0.1 µM [4]: 99.4%
- activity at 1 µM [1]: 106%
- activity at 1 µM [2]: 117%
- activity at 1 µM (1.5 h, read-out: cm.bpm.90min): 96.5%
- activity at 1 µM [3]: 95%
- activity at 1 µM [4]: 92%
- activity at 10 µM [1]: 103%
- activity at 10 µM [2]: 96%
- activity at 10 µM (1.5 h, read-out: cm.bpm.90min): 107%
- activity at 10 µM [3]: 95.2%
- activity at 10 µM [4]: 96.4%
- activity at 100 µM [1]: 83.2%
- activity at 100 µM [2]: 175%
- activity at 100 µM (1.5 h, read-out: cm.bpm.90min): 208%
- activity at 100 µM [3]: 94.6%
- activity at 100 µM [4]: 140%
- activity at 0.01 µM [5]: 135%
- activity at 0.01 µM [6]: 92.2%
- activity at 0.01 µM (24 h, read-out: cm.bpm.24hrs): 111%
- activity at 0.01 µM [7]: 98%
- activity at 0.01 µM [8]: 116%
- activity at 0.1 µM [5]: 30.6%
- activity at 0.1 µM [6]: 60.1%
- activity at 0.1 µM (24 h, read-out: cm.bpm.24hrs): 50.6%
- activity at 0.1 µM [7]: 49%
- activity at 0.1 µM [8]: 49.7%
- activity at 1 µM [5]: 81.2%
- activity at 1 µM [6]: 110%
- activity at 1 µM (24 h, read-out: cm.bpm.24hrs): 95.5%
- activity at 1 µM [7]: 98.7%
- activity at 1 µM [8]: 85.6%
- activity at 10 µM [5]: 94.7%
- activity at 10 µM [6]: 93.1%
- activity at 10 µM (24 h, read-out: cm.bpm.24hrs): 119%
- activity at 10 µM [7]: 90.5%
- activity at 10 µM [8]: 112%
- activity at 100 µM [5]: 30.7%
- activity at 100 µM [6]: 58%
- activity at 100 µM (24 h, read-out: cm.bpm.24hrs): 81.2%
- activity at 100 µM [7]: 38.5%
- activity at 100 µM [8]: 76.1%

SMILES: COc1ccc(-c2cccc(Cl)c2)cc1Cl [4-OMe PCB11]
- activity at 0.01 µM [1]: 85.7%
- activity at 0.01 µM [2]: 106%
- activity at 0.01 µM (1.5 h, read-out: cm.bpm.90min): 99.1%
- activity at 0.01 µM [3]: 99.7%
- activity at 0.01 µM [4]: 111%
- activity at 0.1 µM [1]: 97.2%
- activity at 0.1 µM [2]: 98.8%
- activity at 0.1 µM (1.5 h, read-out: cm.bpm.90min): 105%
- activity at 0.1 µM [3]: 99.7%
- activity at 0.1 µM [4]: 106%
- activity at 1 µM [1]: 106%
- activity at 1 µM [2]: 101%
- activity at 1 µM (1.5 h, read-out: cm.bpm.90min): 96.5%
- activity at 1 µM [3]: 101%
- activity at 1 µM [4]: 145%
- activity at 10 µM [1]: 94.1%
- activity at 10 µM [2]: 109%
- activity at 10 µM (1.5 h, read-out: cm.bpm.90min): 127%
- activity at 10 µM [3]: 94%
- activity at 10 µM [4]: 102%
- activity at 100 µM [1]: 0%
- activity at 100 µM [2]: 0%
- activity at 100 µM (1.5 h, read-out: cm.bpm.90min): 0%
- activity at 100 µM [3]: 0%
- activity at 100 µM [4]: 0%
- activity at 0.01 µM [5]: 121%
- activity at 0.01 µM [6]: 82.2%
- activity at 0.01 µM (24 h, read-out: cm.bpm.24hrs): 110%
- activity at 0.01 µM [7]: 94.8%
- activity at 0.01 µM [8]: 108%
- activity at 0.1 µM [5]: 79.3%
- activity at 0.1 µM [6]: 98.7%
- activity at 0.1 µM (24 h, read-out: cm.bpm.24hrs): 103%
- activity at 0.1 µM [7]: 98.9%
- activity at 0.1 µM [8]: 101%
- activity at 1 µM [5]: 107%
- activity at 1 µM [6]: 95.6%
- activity at 1 µM (24 h, read-out: cm.bpm.24hrs): 90.7%
- activity at 1 µM [7]: 111%
- activity at 1 µM [8]: 98.4%
- activity at 10 µM [5]: 92.1%
- activity at 10 µM [6]: 119%
- activity at 10 µM (24 h, read-out: cm.bpm.24hrs): 123%
- activity at 10 µM [7]: 109%
- activity at 10 µM [8]: 118%
- activity at 100 µM [5]: 0%
- activity at 100 µM [6]: 0%
- activity at 100 µM (24 h, read-out: cm.bpm.24hrs): 0%
- activity at 100 µM [7]: 0%
- activity at 100 µM [8]: 0%
